From US10168342B2, “Lipid probes and uses thereof” (THE SCRIPPS RESEARCH INSTITUTE, priority 2015, dated 2019)

Assays:
Test in all cases: In situ competitive SILAC profiling with A-DA probe in (PMA-stimulated) A549 cells
Conditions in all cases: A549 cells, A-DA probe
[1] = biological target: T1, A-DA lipid probe targets in A549 cells (Homo sapiens, UniProt Q86XL3)
T1 sequence (Q86XL3 1-938): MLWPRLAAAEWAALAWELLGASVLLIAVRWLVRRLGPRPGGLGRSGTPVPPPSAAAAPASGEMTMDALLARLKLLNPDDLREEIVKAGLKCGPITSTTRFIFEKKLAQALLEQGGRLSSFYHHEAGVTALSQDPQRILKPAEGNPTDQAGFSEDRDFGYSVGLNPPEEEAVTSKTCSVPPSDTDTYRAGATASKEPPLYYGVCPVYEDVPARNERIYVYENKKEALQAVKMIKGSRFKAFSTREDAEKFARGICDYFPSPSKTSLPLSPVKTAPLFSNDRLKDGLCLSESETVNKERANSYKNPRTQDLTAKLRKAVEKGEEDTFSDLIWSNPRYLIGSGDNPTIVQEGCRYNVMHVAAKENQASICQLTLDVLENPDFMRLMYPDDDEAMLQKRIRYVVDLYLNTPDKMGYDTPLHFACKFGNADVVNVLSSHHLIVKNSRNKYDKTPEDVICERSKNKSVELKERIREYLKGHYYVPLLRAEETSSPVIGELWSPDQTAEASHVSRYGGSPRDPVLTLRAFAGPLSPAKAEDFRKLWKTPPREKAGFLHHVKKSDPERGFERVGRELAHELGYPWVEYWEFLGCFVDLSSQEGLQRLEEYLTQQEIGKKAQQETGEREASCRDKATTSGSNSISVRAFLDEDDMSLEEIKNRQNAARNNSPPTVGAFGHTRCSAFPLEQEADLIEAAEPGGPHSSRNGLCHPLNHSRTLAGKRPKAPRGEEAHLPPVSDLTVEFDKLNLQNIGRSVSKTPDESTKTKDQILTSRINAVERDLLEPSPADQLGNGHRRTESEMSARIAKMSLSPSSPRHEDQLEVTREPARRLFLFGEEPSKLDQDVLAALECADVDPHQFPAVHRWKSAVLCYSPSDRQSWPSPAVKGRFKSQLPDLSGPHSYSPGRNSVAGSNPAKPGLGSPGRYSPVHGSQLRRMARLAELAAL

[2] = biological target: T2, A-DA lipid probe targets in A549 cells (Homo sapiens, UniProt Q99536)
T2 sequence (Q99536 1-393): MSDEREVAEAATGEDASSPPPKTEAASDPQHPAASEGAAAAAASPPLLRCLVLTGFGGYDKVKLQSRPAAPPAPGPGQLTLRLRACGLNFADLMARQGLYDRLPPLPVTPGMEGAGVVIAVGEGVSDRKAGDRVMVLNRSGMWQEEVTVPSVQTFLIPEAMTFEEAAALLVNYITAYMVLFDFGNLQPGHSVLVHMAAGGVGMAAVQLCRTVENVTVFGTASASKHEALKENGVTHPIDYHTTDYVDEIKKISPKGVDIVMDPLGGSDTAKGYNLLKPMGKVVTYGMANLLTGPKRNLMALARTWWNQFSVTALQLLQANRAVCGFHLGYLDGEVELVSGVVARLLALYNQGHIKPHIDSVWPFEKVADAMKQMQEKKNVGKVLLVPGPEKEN

[3] = biological target: T3, A-DA lipid probe targets in A549 cells (Homo sapiens, UniProt Q9NS69)
T3 sequence (Q9NS69 1-142): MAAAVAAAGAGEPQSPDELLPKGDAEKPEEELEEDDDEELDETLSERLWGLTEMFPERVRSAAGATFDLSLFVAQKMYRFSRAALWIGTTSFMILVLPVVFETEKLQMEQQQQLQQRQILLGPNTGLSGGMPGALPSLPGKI

[4] = biological target: A-DA lipid probe targets in A549 cells (Homo sapiens, UniProt Q9Y639)
[5] = biological target: T4, A-DA lipid probe targets in A549 cells (Homo sapiens, UniProt O15173)
T4 sequence (O15173 1-223): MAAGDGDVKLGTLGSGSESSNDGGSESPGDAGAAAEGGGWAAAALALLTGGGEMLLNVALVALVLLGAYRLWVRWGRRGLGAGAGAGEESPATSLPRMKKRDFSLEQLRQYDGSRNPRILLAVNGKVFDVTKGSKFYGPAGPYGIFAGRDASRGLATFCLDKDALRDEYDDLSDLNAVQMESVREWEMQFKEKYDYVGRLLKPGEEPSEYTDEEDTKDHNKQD

[6] = biological target: T5, A-DA lipid probe targets in A549 cells (Homo sapiens, UniProt Q8NF37)
T5 sequence (Q8NF37 1-534): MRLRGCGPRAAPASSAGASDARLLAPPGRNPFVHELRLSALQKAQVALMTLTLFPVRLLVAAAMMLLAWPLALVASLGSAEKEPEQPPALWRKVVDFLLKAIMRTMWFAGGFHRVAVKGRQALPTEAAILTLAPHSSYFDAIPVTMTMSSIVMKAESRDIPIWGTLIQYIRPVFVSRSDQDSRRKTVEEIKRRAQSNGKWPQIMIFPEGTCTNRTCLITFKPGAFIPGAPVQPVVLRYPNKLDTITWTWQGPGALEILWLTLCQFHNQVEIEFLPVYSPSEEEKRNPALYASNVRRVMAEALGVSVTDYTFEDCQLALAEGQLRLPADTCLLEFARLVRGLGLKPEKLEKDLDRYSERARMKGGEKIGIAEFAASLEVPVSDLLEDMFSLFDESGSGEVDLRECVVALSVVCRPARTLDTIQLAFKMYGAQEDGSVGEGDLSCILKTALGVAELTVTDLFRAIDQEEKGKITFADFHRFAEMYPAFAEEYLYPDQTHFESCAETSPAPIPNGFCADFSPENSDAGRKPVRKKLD

Sequence of A-DA lipid probe targets in A549 cells (Homo sapiens, UniProt Q9Y639) (Q9Y639 29-398): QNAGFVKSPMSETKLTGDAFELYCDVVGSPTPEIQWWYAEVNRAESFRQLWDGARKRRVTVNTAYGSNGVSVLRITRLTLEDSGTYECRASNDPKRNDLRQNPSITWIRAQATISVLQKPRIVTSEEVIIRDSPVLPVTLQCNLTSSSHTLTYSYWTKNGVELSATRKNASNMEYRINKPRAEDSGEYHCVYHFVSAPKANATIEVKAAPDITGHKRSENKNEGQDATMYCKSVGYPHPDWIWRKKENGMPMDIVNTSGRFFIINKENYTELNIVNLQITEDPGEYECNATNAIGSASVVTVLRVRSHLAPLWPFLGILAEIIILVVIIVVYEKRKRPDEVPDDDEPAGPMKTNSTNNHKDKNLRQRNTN

Compound	SILAC ratio, ANKLE2 (Q86XL3) ([1]; competitor 25 μM)	SILAC ratio, VAT1 (Q99536) ([2]; competitor 25 μM)	SILAC ratio, TOMM22 (Q9CPQ3) ([3]; competitor 25 μM)	SILAC ratio, NPTN (Q9Y639) ([4]; competitor 25 μM)	SILAC ratio, PGRMC2 (Q80UU9) ([5]; competitor 25 μM)	SILAC ratio, LPCAT1 (Q8NF37) ([6]; competitor 25 μM)	SILAC ratio, ANKLE2 (Q86XL3) ([1]; competitor 5 μM)	SILAC ratio, ANKLE2 (Q86XL3) ([1]; competitor 50 μM)	SILAC ratio, VAT1 (Q99536) ([2]; competitor 5 μM)	SILAC ratio, VAT1 (Q99536) ([2]; competitor 50 μM)	SILAC ratio, TOMM22 (Q9CPQ3) ([3]; competitor 5 μM)	SILAC ratio, TOMM22 (Q9CPQ3) ([3]; competitor 50 μM)	SILAC ratio, NPTN (Q9Y639) ([4]; competitor 5 μM)	SILAC ratio, NPTN (Q9Y639) ([4]; competitor 50 μM)	SILAC ratio, PGRMC2 (Q80UU9) ([5]; competitor 5 μM)	SILAC ratio, PGRMC2 (Q80UU9) ([5]; competitor 50 μM)	SILAC ratio, LPCAT1 (Q8NF37) ([6]; competitor 5 μM)	SILAC ratio, LPCAT1 (Q8NF37) ([6]; competitor 50 μM)
O=C(/C=C/c1cccnc1)NCCCCC1CCN(C(=O)c2ccccc2)CC1 [FK-866, reference compound]	1.3	4.0	1.3	1.4	1.2	1.4												
C=CCN(C)CCCCCCOc1ccc(C(=O)c2ccc(Br)cc2)c(F)c1 [Ro488071]							1.7	3.1	1.4	2.5	1.4	1.4	1.3	3.0	1.6	2.1	1.6	3.1
